From PubChem BioAssay AID248 (DTP/NCI, 2004)
Where “and” joins values, the source holds several entries; their conditions need not be identical. Equal values may be shown once. Toxic doses and inconclusive results are not listed. No stated cut-off is given here; in the data, active means T/C of 150% or more; inactive means T/C below 125%.

Test system: L1210 leukemia ip in BDF1 mice, survival T/C
Assay: NCI In Vivo Anticancer Drug Screen. Data for tumor model L1210 Leukemia (intraperitoneal) in B6D2F1 (BDF1) mice
Conditions: endpoint: mean survival time, higher = longer survival
Summary of the method: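 Each compound was tested against a transplantable tumor grown in mice. The endpoint was survival, with treated animals benchmarked against vehicle controls as a simple ratio.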

[1] = dose: 25.0 mg/kg/injection, schedule: Q04DX003 (ip), vehicle: saline
[2] = dose: 100.0 mg/kg/injection, schedule: Q01DX009 (ip), vehicle: Klucel (hydroxypropylcellulose) (HPC)
[3] = dose: 100.0 mg/kg/injection, schedule: Q04DX003 (ip), vehicle: Klucel (hydroxypropylcellulose) (HPC)
[4] = dose: 200.0 mg/kg/injection, schedule: Q01DX009 (ip), vehicle: Klucel (hydroxypropylcellulose) (HPC)
[5] = dose: 200.0 mg/kg/injection, schedule: Q04DX003 (ip), vehicle: Klucel (hydroxypropylcellulose) (HPC)
[6] = dose: 400.0 mg/kg/injection, schedule: Q04DX003 (ip), vehicle: Klucel (hydroxypropylcellulose) (HPC)
[7] = dose: 100.0 mg/kg/injection, schedule: Q01DX001 (ip), vehicle: other
[8] = dose: 200.0 mg/kg/injection, schedule: Q01DX001 (ip), vehicle: other
[9] = dose: 400.0 mg/kg/injection, schedule: Q01DX001 (ip), vehicle: other
[10] = dose: 100.0 mg/kg/injection, schedule: Q04DX002 (ip), vehicle: Klucel (hydroxypropylcellulose) (HPC)
[11] = dose: 200.0 mg/kg/injection, schedule: Q04DX002 (ip), vehicle: Klucel (hydroxypropylcellulose) (HPC)
[12] = dose: 100.0 mg/kg/injection, schedule: Q04DX003 (ip), vehicle: saline with Tween-80
[13] = dose: 200.0 mg/kg/injection, schedule: Q04DX003 (ip), vehicle: saline with Tween-80
[14] = dose: 100.0 mg/kg/injection, schedule: Q01DX001 (ip), vehicle: saline
[15] = dose: 200.0 mg/kg/injection, schedule: Q01DX001 (ip), vehicle: saline
[16] = dose: 400.0 mg/kg/injection, schedule: Q01DX001 (ip), vehicle: saline
[17] = dose: 100.0 mg/kg/injection, schedule: Q01DX009 (ip), vehicle: saline with Tween-80
[18] = dose: 200.0 mg/kg/injection, schedule: Q01DX009 (ip), vehicle: saline with Tween-80
[19] = dose: 400.0 mg/kg/injection, schedule: Q01DX009 (ip), vehicle: saline with Tween-80
[20] = dose: 400.0 mg/kg/injection, schedule: Q04DX003 (ip), vehicle: saline with Tween-80
[21] = dose: 100.0 mg/kg/injection, schedule: Q04DX003 (ip), vehicle: saline
[22] = dose: 200.0 mg/kg/injection, schedule: Q04DX003 (ip), vehicle: saline
[23] = dose: 400.0 mg/kg/injection, schedule: Q04DX003 (ip), vehicle: saline

Measured: T/C

Clc1cc(Cl)nc(N2CC2)n1
inactive: dose: 0.02 mg/kg/injection, schedule: Q01DX Z (ip), vehicle: methylcellulose (MC) 91 % of control | dose: 6.25 mg/kg/injection, schedule: Q01DX009 (ip), vehicle: acetone 108 % of control | dose: 12.5 mg/kg/injection, schedule: Q01DX009 (ip), vehicle: acetone 111 % of control | dose: 12.5 mg/kg/injection, schedule: Q04DX003 (ip), vehicle: saline 98 % of control | [1] 92 % of control

Cc1ccccc1NC(=O)Nc1cccc(C)c1C
inactive: [2] 87 % of control | [3] 98 % of control | [4] 95 % of control | [5] 93 % of control | [6] 94 % of control

CCc1nnc2cc(C)ccn12
inactive: [7] 98 % of control | dose: 100.0 mg/kg/injection, schedule: Q04DX003 (ip), vehicle: other 98 % of control | [8] 107 % of control | dose: 200.0 mg/kg/injection, schedule: Q04DX003 (ip), vehicle: other 98 % of control | [9] 107 % of control

Nc1ccccc1SC(CC(=O)c1ccccc1)c1ccc(Cl)cc1 (stereo not given)
inactive: dose: 100.0 mg/kg/injection, schedule: Q01DX005 (ip), vehicle: Klucel (hydroxypropylcellulose) (HPC) 91 % of control | [10] 89 % of control | dose: 200.0 mg/kg/injection, schedule: Q01DX005 (ip), vehicle: Klucel (hydroxypropylcellulose) (HPC) 97 % of control | [11] 95 % of control | dose: 400.0 mg/kg/injection, schedule: Q01DX005 (ip), vehicle: Klucel (hydroxypropylcellulose) (HPC) 97 % of control | dose: 400.0 mg/kg/injection, schedule: Q04DX002 (ip), vehicle: Klucel (hydroxypropylcellulose) (HPC) 100 % of control

C[N+](C)(Cc1ccc(Cl)cc1)C1c2ccccc2-c2ccccc21
inactive: dose: 6.0 mg/kg/injection, schedule: Q04DX003 (ip), vehicle: saline 93 % of control | dose: 12.0 mg/kg/injection, schedule: Q04DX003 (ip), vehicle: saline 102 % of control | dose: 12.5 mg/kg/injection, schedule: Q01DX009 (ip), vehicle: saline 106 % of control | dose: 25.0 mg/kg/injection, schedule: Q01DX009 (ip), vehicle: saline 101 % of control | [1] 94 % of control and 91 % of control | dose: 50.0 mg/kg/injection, schedule: Q01DX009 (ip), vehicle: saline 98 % of control | dose: 50.0 mg/kg/injection, schedule: Q04DX003 (ip), vehicle: saline 87 % of control

CC(=O)C(Cl)C(C)=O.CC(=O)C(Cl)C(C)=O.CC(=O)CC(C)=O.[Rh]
inactive: dose: 50.0 mg/kg/injection, schedule: Q01DX001 (ip), vehicle: other 102 % of control | [7] 98 % of control | [8] 96 % of control | [9] 98 % of control

CCN(CC)CCOC(=O)C(S)(c1ccccc1)C1CCCCC1 (stereo not given)
inactive: dose: 75.0 mg/kg/injection, schedule: Q01DX001 (ip), vehicle: other 90 % of control | dose: 150.0 mg/kg/injection, schedule: Q01DX001 (ip), vehicle: other 87 % of control

CC(=O)OC1CCC2(C)C(CCC3C2CC(=O)C2(C)C3CC(N3CC3)C2C(C)=O)C1 (stereo not given)
inactive: dose: 100.0 mg/kg/injection, schedule: Q01DX001 (sc), vehicle: steriod suspending solution 89 % of control | dose: 200.0 mg/kg/injection, schedule: Q01DX001 (sc), vehicle: steriod suspending solution 99 % of control | dose: 400.0 mg/kg/injection, schedule: Q01DX001 (sc), vehicle: steriod suspending solution 99 % of control

COc1ccc2nc(N)sc2c1
inactive: dose: 12.5 mg/kg/injection, schedule: Q01DX009 (ip), vehicle: saline with Tween-80 96 % of control | dose: 25.0 mg/kg/injection, schedule: Q01DX009 (ip), vehicle: saline with Tween-80 89 % of control | dose: 50.0 mg/kg/injection, schedule: Q01DX009 (ip), vehicle: saline with Tween-80 97 % of control and 91 % of control | dose: 50.0 mg/kg/injection, schedule: Q04DX003 (ip), vehicle: saline with Tween-80 107 % of control | [12] 112 % of control | [13] 93 % of control

O=C(Cl)OCC(Cl)(Cl)Cl
inactive: dose: 100.0 mg/kg/injection, schedule: Q01DX001 (ip), vehicle: Klucel (hydroxypropylcellulose) (HPC) 100 % of control | [2] 100 % of control | dose: 200.0 mg/kg/injection, schedule: Q01DX001 (ip), vehicle: Klucel (hydroxypropylcellulose) (HPC) 100 % of control | [4] 96 % of control | dose: 400.0 mg/kg/injection, schedule: Q01DX001 (ip), vehicle: Klucel (hydroxypropylcellulose) (HPC) 100 % of control

Nc1cccn2cnnc12
inactive: [14] 103 % of control | [15] 101 % of control | [16] 97 % of control

COC(=O)C(CSCSC)NC(=O)/C=C/c1ccc(C)cc1 (stereo not given)
inactive: [17] 102 % of control | [12] 93 % of control | [18] 101 % of control | [19] 91 % of control | [20] 91 % of control

COc1ccc(/C=N/n2c(C)cc(C)c(C#N)c2=O)c(OC)c1OC
inactive: [17] 100 % of control | [12] 118 % of control | [18] 91 % of control | [13] 103 % of control | [19] 107 % of control | [20] 106 % of control

CC(=O)Nc1ccc(/C=N/N2CCN(/N=C/c3ccc(NC(C)=O)cc3)CC2)cc1
inactive: [14] 86 % of control | [15] 96 % of control | [16] 92 % of control

CC(=O)OCc1ccc[nH]c1=O
inactive: [21] 104 % of control | [22] 98 % of control | [23] 104 % of control

CCOC(=O)C1(C(=O)OCC)C/C=C/CC(C(=O)OCC)(C(=O)OCC)C/C=C/C1
inactive: dose: 100.0 mg/kg/injection, schedule: Q01DX009 (ip), vehicle: saline 90 % of control | [21] 98 % of control | dose: 200.0 mg/kg/injection, schedule: Q01DX009 (ip), vehicle: saline 102 % of control | [22] 95 % of control | dose: 400.0 mg/kg/injection, schedule: Q01DX009 (ip), vehicle: saline 92 % of control | [23] 90 % of control

Cc1ccc(NC2CNC(=O)NC2=O)cc1 (stereo not given)
inactive: dose: 100.0 mg/kg/injection, schedule: Q01DX Z (ip), vehicle: methylcellulose (MC) 100 % of control | dose: 200.0 mg/kg/injection, schedule: Q01DX Z (ip), vehicle: methylcellulose (MC) 93 % of control

COc1ccc(OC(C)=O)c2c1C(=O)OC(C)C2NC(=O)C(C)NC(C)=O (stereo not given)
inactive: dose: 12.5 mg/kg/injection, schedule: Q04DX002 (ip), vehicle: saline with Tween-80 103 % of control | dose: 25.0 mg/kg/injection, schedule: Q04DX002 (ip), vehicle: saline with Tween-80 107 % of control | dose: 50.0 mg/kg/injection, schedule: Q04DX002 (ip), vehicle: saline with Tween-80 100 % of control

Cc1ccc(NC(=O)c2ccccc2)cc1
inactive: [10] 95 % of control | [11] 95 % of control

COc1ccc2c(c1)CCC1=C2CCC2C1C(=O)CCC21OCCCO1 (stereo not given)
inactive: [3] 100 % of control | [5] 96 % of control | [6] 96 % of control

COc1cc(OC)c(OCc2ccccc2)c(OC)c1
inactive: dose: 100.0 mg/kg/injection, schedule: Q01DX001 (ip), vehicle: carboxymethylcellulose (CMC) 96 % of control | dose: 200.0 mg/kg/injection, schedule: Q01DX001 (ip), vehicle: carboxymethylcellulose (CMC) 94 % of control | dose: 400.0 mg/kg/injection, schedule: Q01DX001 (ip), vehicle: carboxymethylcellulose (CMC) 96 % of control

CCN(CC)c1ccc(/C=N/N=C(N)N)cc1
inactive: dose: 3.8 mg/kg/injection, schedule: Q01DX Z (ip), vehicle: other 109 % of control | dose: 7.5 mg/kg/injection, schedule: Q01DX Z (ip), vehicle: other 88 % of control | dose: 15.0 mg/kg/injection, schedule: Q01DX Z (ip), vehicle: other 97 % of control
